Assay results reported in US11053204B2, “Pyrimidinyloxy benzene derivatives as herbicides” (FMC Corporation, priority 2015, dated 2021).

Tests used:
Format in all cases: in vivo
[1] = system: ragweed (common ragweed, Ambrosia elatior); experiment: Test A preemergence, visual injury rating; settings: for pest or weed control at 125 g/ha / pest or weed control at 500 g/ha: Ambrosia artemisiifolia, pre-emergence, 240 h, read-out: Ragweed plant response rating
Summary of the method: (§1)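 Scoring: eye-based comparison with untreated controls, 0 for no effect through 100 for complete control, at about day 10. Treatments: directed soil spray preemergence; foliar spray postemergence on 2–10 cm plants at the one- to two-leaf stage. Medium: loam soil with sand.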

[2] = system: Italian ryegrass (Lolium multiflorum); experiment: Test A preemergence, visual injury rating; settings: for pest or weed control at 125 g/ha / pest or weed control at 500 g/ha: Lolium multiflorum, pre-emergence, 240 h, read-out: Ryegrass, Italian plant response rating
Summary of the method: as §1

[3] = system: pigweed (Amaranthus retroflexus); experiment: Test A preemergence, visual injury rating; settings: for pest or weed control at 125 g/ha / pest or weed control at 500 g/ha: Amaranthus retroflexus, pre-emergence, 240 h, read-out: Pigweed plant response rating
Summary of the method: as §1

[4] = system: giant foxtail (Setaria faberii); experiment: Test A preemergence, visual injury rating; settings: for pest or weed control at 125 g/ha / pest or weed control at 500 g/ha: Setaria faberi, pre-emergence, 240 h, read-out: Foxtail, Giant plant response rating
Summary of the method: as §1

[5] = system: ragweed (common ragweed, Ambrosia elatior); experiment: Test C preemergence, plant response rating; settings: Preemergence
Text: (§2) Seeds of plant species selected from blackgrass (Alopecurus myosuroides), ryegrass, Italian (Italian ryegrass, Lolium multiflorum), wheat (winter wheat, Triticum aestivum), galium (catchweed bedstraw, Galium aparine), corn (Zea mays), crabgrass, large (large crabgrass, Digitaria sanguinalis), foxtail, giant (giant foxtail, Setaria faberii), johnsongrass (Sorghum halepense), lambsquarters (Chenopodium album), morningglory (Ipomoea coccinea), nutsedge, yellow (yellow nutsedge, Cyperus esculentus), pigweed (Amaranthus retroflexus), ragweed (common ragweed, Ambrosia elatior), soybean (Glycine max), barnyardgrass (Echinochloa crus-galli), oilseed rape (Brassica napus), pigweed, palmer (palmer pigweed, Amaranthus palmeri), waterhemp (common waterhemp, Amaranthus rudis), velvetleaf (Abutilon theophrasti), kochia (Kochia scoparia), surinam grass (Brachiaria decumbens), nightshade (eastern black nightshade, Solanum ptycanthum), wild poinsettia (Euphorbia heterophylla), windgrass (Apera spica-venti), and oat, wild (wild oat Avena fatua), were planted into a blend of loam soil and sand or a silt loam soil and treated preemergence with test chemicals formulated in a non-phytotoxic solvent mixture which included a surfactant.
(§3) At the same time, plants selected from these crop and weed species and also chickweed (common chickweed, Stellaria media), buckwheat, wild (wild buckwheat, Polygonum convolvulus), wild mustard (Sinapis arvensis), field poppy (Papaver rhoeas), field violet (Viola arvensis), geranium, cutleaf (cutleaf geranium, Geranium dissectum), Canada thistle (Cirsium arvense), and speedwell (bird's-eye speedwell, Veronica persica), were planted in pots containing Sunshine Redi-Earth® planting medium comprising spaghnum peat moss, vermiculite, starter nutrients and dolomitic limestone and treated with postemergence applications of test chemicals formulated in the same manner. Plants ranged in height from 2 to 18 cm (1- to 4-leaf stage) for postemergence treatments. Treated plants and controls were maintained in a greenhouse for 13 to 15 d, after which time all species were compared to controls and visually evaluated. Plant response ratings, summarized in Table C, are based on a scale of 0 to 100 where 0 is no effect and 100 is complete control. A dash (-) response means no test result.

soybean (Glycine max) = experiment: Test C preemergence, plant response rating; settings: Preemergence
Text: as §2, §3

[6] = system: waterhemp (common waterhemp, Amaranthus rudis); experiment: Test C preemergence, plant response rating; settings: Preemergence
Text: as §2, §3

[7] = system: oilseed rape (Brassica napus); experiment: Test C preemergence, plant response rating; settings: Preemergence
Text: as §2, §3

[8] = system: wheat (winter wheat, Triticum aestivum); experiment: Test C preemergence, plant response rating; settings: Preemergence
Text: as §2, §3

[9] = system: ryegrass, Italian (Italian ryegrass, Lolium multiflorum); experiment: Test C preemergence, plant response rating; settings: Preemergence
Text: as §2, §3

[10] = system: morningglory (Ipomoea coccinea); experiment: Test C preemergence, plant response rating; settings: Preemergence
Text: as §2, §3

[11] = system: foxtail, giant (giant foxtail, Setaria faberii); experiment: Test C preemergence, plant response rating; settings: Preemergence
Text: as §2, §3

[12] = system: crabgrass, large (large crabgrass, Digitaria sanguinalis); experiment: Test C preemergence, plant response rating; settings: Preemergence
Text: as §2, §3

[13] = system: lambsquarters (Chenopodium album); experiment: Test C preemergence, plant response rating; settings: Preemergence
Text: as §2, §3

[14] = system: velvetleaf (Abutilon theophrasti); experiment: Test C preemergence, plant response rating; settings: Preemergence
Text: as §2, §3

[15] = system: nutsedge, yellow (yellow nutsedge, Cyperus esculentus); experiment: Test C preemergence, plant response rating; settings: Preemergence
Text: as §2, §3

[16] = system: blackgrass (Alopecurus myosuroides); experiment: Test C preemergence, plant response rating; settings: Preemergence
Text: as §2, §3

corn (Zea mays) = experiment: Test C preemergence, plant response rating; settings: Preemergence
Text: as §2, §3

[17] = 500 g ai/ha, 0 to 100 scale (0 no effect, 100 complete control)
[18] = 125 g ai/ha, 0 to 100 scale (0 no effect, 100 complete control)
[19] = 31 g ai/ha, 0 to 100 scale, 0 no effect, 100 complete control

## N#CCCOC(=O)c1c(Br)cccc1Oc1ncc(Cl)cn1 [Compound 7]
[1]; [17]
  Ragweed plant response rating: 50
[2]; [18]
  Ryegrass, Italian plant response rating: 0
[2]; [17]
  Ryegrass, Italian plant response rating: 30
[3]; [18]
  Pigweed plant response rating: 100
[3]; [17]
  Pigweed plant response rating: 100
[4]; [18]
  Foxtail, Giant plant response rating: 90
[4]; [17]
  Foxtail, Giant plant response rating: 100

## C=CCOC(=O)c1c(Br)cccc1Oc1ncc(Cl)cn1 [Compound 22, 2-propen-1-yl 2-bromo-6-[(5-chloro-2-pyrimidinyl)oxy]benzoate]
[1]; [18]
  pest or weed control at 125 g/ha: 0%
[1]; [17]
  pest or weed control at 500 g/ha: 0%
[2]; [18]
  pest or weed control at 125 g/ha: 30%
[2]; [17]
  pest or weed control at 500 g/ha: 90%
[3]; [18]
  pest or weed control at 125 g/ha: 100%
[3]; [17]
  pest or weed control at 500 g/ha: 100%
[4]; [18]
  pest or weed control at 125 g/ha: 100%
[4]; [17]
  pest or weed control at 500 g/ha: 100%

## O=C(OCC(F)(F)C(F)(F)F)c1c(Br)cccc1Oc1ncc(Cl)cn1 [Compound 23, 2,2,3,3,3-pentafluoropropyl 2-bromo-6-[(5-chloro-2-pyrimidinyl)oxy]benzoate]
[1]; [18]
  pest or weed control at 125 g/ha: 0%
[1]; [17]
  pest or weed control at 500 g/ha: 10%
[2]; [18]
  pest or weed control at 125 g/ha: 0%
[2]; [17]
  pest or weed control at 500 g/ha: 40%
[3]; [18]
  pest or weed control at 125 g/ha: 100%
[3]; [17]
  pest or weed control at 500 g/ha: 100%
[4]; [18]
  pest or weed control at 125 g/ha: 70%
[4]; [17]
  pest or weed control at 500 g/ha: 100%

## O=C(OCC(F)(F)F)c1c(Br)cccc1Oc1ncc(Cl)cn1 [Compound 35]
[1]; [18]
  Ragweed plant response rating: 0
[1]; [17]
  Ragweed plant response rating: 0
[2]; [18]
  Ryegrass, Italian plant response rating: 0
[2]; [17]
  Ryegrass, Italian plant response rating: 30
[3]; [18]
  Pigweed plant response rating: 100
[3]; [17]
  Pigweed plant response rating: 100
[4]; [18]
  Foxtail, Giant plant response rating: 100
[4]; [17]
  Foxtail, Giant plant response rating: 100

## O=C(CCC(F)(F)C(F)(F)F)c1c(Br)cccc1Oc1ncc(Cl)cn1 [Compound 110]
[1]; [19]
  Plant response rating, Ragweed: 0
[1]; [18]
  Plant response rating, Ragweed: 0
[2]; [19]
  Plant response rating, Ryegrass, Italian: 0
[2]; [18]
  Plant response rating, Ryegrass, Italian: 70
[3]; [19]
  Plant response rating, Pigweed: 40
[3]; [18]
  Plant response rating, Pigweed: 100
[4]; [19]
  Plant response rating, Foxtail, Giant: 80
[4]; [18]
  Plant response rating, Foxtail, Giant: 100

## FC(F)(F)CCCCc1c(Cl)cccc1Oc1ncc(Cl)cn1 [Compound 137]
[1]; [19]
  Plant response rating, Ragweed: 0
[1]; [18]
  Plant response rating, Ragweed: 0
[2]; [19]
  Plant response rating, Ryegrass, Italian: 0
[2]; [18]
  Plant response rating, Ryegrass, Italian: 20
[3]; [19]
  Plant response rating, Pigweed: 10
[3]; [18]
  Plant response rating, Pigweed: 100
[4]; [19]
  Plant response rating, Foxtail, Giant: 70
[4]; [18]
  Plant response rating, Foxtail, Giant: 100

## O=C(CCCC(F)(F)F)c1c(Cl)cccc1Oc1ncc(Cl)cn1 [Compound 143]
[5]; 125 g ai/ha, scale of 0 to 100
  Plant response rating, Ragweed: 5
[5]; 31 g ai/ha, scale 0 to 100
  Plant response rating, Ragweed: 0
[5]; 62 g ai/ha, scale 0 to 100
  Plant response rating, Ragweed: 0
Soybean (Glycine max); 125 g ai/ha, scale of 0 to 100
  Plant response rating, Soybean: 20
Soybean (Glycine max); 31 g ai/ha, scale 0 to 100
  Plant response rating, Soybean: 0
Soybean (Glycine max); 62 g ai/ha, scale 0 to 100
  Plant response rating, Soybean: 15
[6]; 125 g ai/ha, scale of 0 to 100
  Plant response rating, Waterhemp: 100
[6]; 31 g ai/ha, scale 0 to 100
  Plant response rating, Waterhemp: 98
[6]; 62 g ai/ha, scale 0 to 100
  Plant response rating, Waterhemp: 100
[7]; 125 g ai/ha, scale of 0 to 100
  Plant response rating, Oilseed Rape: 98
[7]; 31 g ai/ha, scale 0 to 100
  Plant response rating, Oilseed Rape: 5
[7]; 62 g ai/ha, scale 0 to 100
  Plant response rating, Oilseed Rape: 80
[8]; 125 g ai/ha, scale of 0 to 100
  Plant response rating, Wheat: 0
[8]; 31 g ai/ha, scale 0 to 100
  Plant response rating, Wheat: 0
[8]; 62 g ai/ha, scale 0 to 100
  Plant response rating, Wheat: 0
[9]; 125 g ai/ha, scale of 0 to 100
  Plant response rating, Ryegrass, Italian: 45
[9]; 31 g ai/ha, scale 0 to 100
  Plant response rating, Ryegrass, Italian: 20
[9]; 62 g ai/ha, scale 0 to 100
  Plant response rating, Ryegrass, Italian: 30
[10]; 125 g ai/ha, scale of 0 to 100
  Plant response rating, Morningglory: 25
[10]; 31 g ai/ha, scale 0 to 100
  Plant response rating, Morningglory: 0
[10]; 62 g ai/ha, scale 0 to 100
  Plant response rating, Morningglory: 5
[11]; 125 g ai/ha, scale of 0 to 100
  Plant response rating, Foxtail, Giant: 100
[11]; 31 g ai/ha, scale 0 to 100
  Plant response rating, Foxtail, Giant: 98
[11]; 62 g ai/ha, scale 0 to 100
  Plant response rating, Foxtail, Giant: 100
[12]; 125 g ai/ha, scale of 0 to 100
  Plant response rating, Crabgrass, Large: 100
[12]; 16 g ai/ha, scale 0 to 100
  Plant response rating, Crabgrass, Large: 70
[12]; 31 g ai/ha, scale 0 to 100
  Plant response rating, Crabgrass, Large: 100
[12]; 62 g ai/ha, scale 0 to 100
  Plant response rating, Crabgrass, Large: 100
[13]; 125 g ai/ha, scale of 0 to 100
  Plant response rating, Lambsquarters: 95
[13]; 31 g ai/ha, scale 0 to 100
  Plant response rating, Lambsquarters: 10
[13]; 62 g ai/ha, scale 0 to 100
  Plant response rating, Lambsquarters: 95
[14]; 125 g ai/ha, scale of 0 to 100
  Plant response rating, Velvetleaf: 70
[14]; 31 g ai/ha, scale 0 to 100
  Plant response rating, Velvetleaf: 10
[14]; 62 g ai/ha, scale 0 to 100
  Plant response rating, Velvetleaf: 40
[15]; 125 g ai/ha, scale of 0 to 100
  Plant response rating, Nutsedge, Yellow: 5
[15]; 31 g ai/ha, scale 0 to 100
  Plant response rating, Nutsedge, Yellow: 0
[15]; 62 g ai/ha, scale 0 to 100
  Plant response rating, Nutsedge, Yellow: 0
[16]; 125 g ai/ha, scale of 0 to 100
  Plant response rating, Blackgrass: 75
[16]; 16 g ai/ha, scale 0 to 100
  Plant response rating, Blackgrass: 5
[16]; 31 g ai/ha, scale 0 to 100
  Plant response rating, Blackgrass: 75
[16]; 62 g ai/ha, scale 0 to 100
  Plant response rating, Blackgrass: 80
Corn (Zea mays); 125 g ai/ha, scale of 0 to 100
  Plant response rating, Corn: 20
Corn (Zea mays); 16 g ai/ha, scale 0 to 100
  Plant response rating, Corn: 5
Corn (Zea mays); 31 g ai/ha, scale 0 to 100
  Plant response rating, Corn: 0
Corn (Zea mays); 62 g ai/ha, scale 0 to 100
  Plant response rating, Corn: 0
[1]; [19]
  Plant response rating, Ragweed: 0
[1]; [18]
  Plant response rating, Ragweed: 0
[2]; [19]
  Plant response rating, Ryegrass, Italian: 20
[2]; [18]
  Plant response rating, Ryegrass, Italian: 70
[4]; [19]
  Plant response rating, Foxtail, Giant: 100
[4]; [18]
  Plant response rating, Foxtail, Giant: 100
